Experiments:
[1] = biological target: mGluR2 (Homo sapiens (Human), UniProt Q14416); assay: In vitro activity test for mGluR2 (HDB Fluo-8 calcium fluorescence, HEK/mGluR2 cell line); assay type: cell-based
Excerpt: Experimental materials: HEK/mGluR2 cell line (human […] transfected HEK cell line), DMEM (FBS) medium, positive control LY487379 (purchased from sigma; CAS: to 352317-17-1)
Experimental instrument: FLIPR Tetra real-time fluorescence imaging analysis system
Experimental method: HDB Fluo-8 calcium fluorescence detection method
Experimental principle: HDB Fluo-8 calcium ion fluorescence detection method is a fast, simple and reliable fluorescence detection method of intracellular calcium concentration changes. The Fluo 8-AM fluorescent dye is an acetyl methyl ester derivative of Fluo 8 which can easily penetrate into the cell membrane by culture. The fluorescent dye in the cell will be hydrolyzed by intracellular esterase, the resulting Fluo 8 as a polar molecule, cannot easily pass through the lipid bimolecular membrane, and will be retained in the cell, and combine with calcium (Ca^2+) to produce fluoresces.
Cells expressing GPCR receptor protein (mGluR2) were first calibrated with a calcium ion sensitive fluorescent probe and then stimulated with the compound. After stimulation, the receptor activates the calcium ion mobilization, and the fluorescent probe captures the calcium ion to induce the fluorescence signal. The signal can be read by a fluoroscopy plate. The fluorescent plate reader contains a sample addition for compound addition, thus enabling the change of the fluorescence value of the compound be read in real time.

[2] = biological target: hERG potassium channel (Homo sapiens (Human), UniProt Q12809); assay: hERG potassium channel toxicity assay (hERG patch clamp); assay type: cell-based; details: for IC50: hERG patch clamp; for inhibition at 40 µM: at maximum concentration 40 μM
Chain of hERG potassium channel (Q12809 whole entry): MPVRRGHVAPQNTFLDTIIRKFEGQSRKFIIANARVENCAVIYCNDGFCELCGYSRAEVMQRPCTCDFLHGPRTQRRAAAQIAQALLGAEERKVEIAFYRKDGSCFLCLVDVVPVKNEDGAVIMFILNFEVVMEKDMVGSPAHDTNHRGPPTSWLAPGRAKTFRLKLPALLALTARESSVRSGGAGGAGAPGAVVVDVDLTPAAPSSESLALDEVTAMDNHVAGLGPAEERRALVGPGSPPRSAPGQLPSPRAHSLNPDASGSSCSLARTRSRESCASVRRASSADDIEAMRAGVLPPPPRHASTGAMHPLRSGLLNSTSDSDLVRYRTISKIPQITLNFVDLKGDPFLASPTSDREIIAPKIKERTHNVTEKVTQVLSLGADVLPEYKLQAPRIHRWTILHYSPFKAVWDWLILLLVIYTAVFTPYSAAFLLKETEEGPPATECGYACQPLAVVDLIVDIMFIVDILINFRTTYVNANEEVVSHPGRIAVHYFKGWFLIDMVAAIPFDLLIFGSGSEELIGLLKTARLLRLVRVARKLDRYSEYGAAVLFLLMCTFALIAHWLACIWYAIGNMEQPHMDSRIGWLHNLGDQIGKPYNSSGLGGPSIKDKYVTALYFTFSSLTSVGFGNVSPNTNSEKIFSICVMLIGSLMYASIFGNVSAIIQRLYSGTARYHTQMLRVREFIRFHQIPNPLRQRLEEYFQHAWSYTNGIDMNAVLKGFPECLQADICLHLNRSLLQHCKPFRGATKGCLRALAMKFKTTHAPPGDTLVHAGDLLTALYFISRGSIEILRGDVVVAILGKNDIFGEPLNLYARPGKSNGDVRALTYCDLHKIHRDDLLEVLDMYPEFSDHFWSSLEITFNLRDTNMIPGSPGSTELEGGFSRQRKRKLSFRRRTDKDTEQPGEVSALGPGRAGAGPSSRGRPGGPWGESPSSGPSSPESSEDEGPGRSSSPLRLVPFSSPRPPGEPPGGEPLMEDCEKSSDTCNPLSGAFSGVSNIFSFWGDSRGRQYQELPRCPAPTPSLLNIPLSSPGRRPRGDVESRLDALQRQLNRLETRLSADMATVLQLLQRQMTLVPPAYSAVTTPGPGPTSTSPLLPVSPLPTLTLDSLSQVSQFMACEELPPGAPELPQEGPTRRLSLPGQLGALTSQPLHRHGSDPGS
Description: Experimental method: hERG patch clamp detection method
Experimental procedure: Compound preparation: the stock solution of a compound was diluted with extracellular fluid, 2 μL of the compound stock solution was added to 998 μL extracellular fluid, and then serially diluted 5 times in an extracellular fluid containing 0.2% DMSO to obtain the final concentration to be tested.

[3] = test system: C57BL/6 mice; assay: Mouse open field experiment; assay type: in vivo
Description: Experiment objectives: to observe the anti-anxiety effect of the test compound on the mice by open field experiment.
Experimental animals: male C57BL/6 mice, 10 weeks old, purchased from Beijing Huafukang Biotechnology Co., Ltd.
Animal rearing: The temperature in the animal room was maintained at 20-25° C., the humidity was maintained at 40-70%, and the photoperiod was 12 hours light and 12 hours dark. During feeding, the mice were housed in standard mouse cages, with colored labels on each cage clearly indicating the item number, and the basic information such as the responsible person, group, animal number and animal gender. All animals were given free access to pure water and standard certified rodent feed. Before the start of the experiment, the experimental animals were adapted to the feeding environment for at least one week.
The compound to be tested, intraperitoneally administered, 30 mg/kg.
Experimental principle: Based on the instincts of rodents tending to avoid light and fear of exploring open fields. When the experimental animals were first placed in the open field, the central area was a potential threat to the animals, while the peripheral area was relatively safe, and rats and mice were more likely to move along the perimeter of the field. Therefore, if the animal is of high anxiety level, it tends to stay in the peripheral area. Conversely, the number and time of exploration in the central area will increase.
Experimental grouping and administration: Experimental animals were randomly divided into 5 groups as follows:
During the 30-minute test period, the total distance traveled by the experimental animals, the central area dwell time, and the percentage of the central area travel distance will be detected and recorded.

[4] = test system: ICR mice; assay: Mouse swimming depression test; assay type: in vivo; details: for non-movement time (%) Mean ± SEM: positive control, 10 mg/kg, intraperitoneal, 0.5 hours before test
Description: Experiment objectives: to observe the effect of the test compound on the depressive status of mice
Experimental animals: ICR mice, 20-28 g, both male and female
Experimental equipment: plexiglass tube: cylindrical, 25 cm high, 15 cm inner diameter
Sample treatment: The test compounds were ground with 1% CMC (sodium carboxymethyl cellulose) to prepare a homogeneous solution. In vivo dose was 5 mg/kg, 10 mg/kg and 20 mg/kg, the compound was orally administrated at 0.1 ml/10 g volume/body weight. Positive control drugs (amitriptyline and fluoxetine) were dissolved with 0.9% saline, in vivo dose was 10 mg/kg, intraperitoneal injected at 0.1 ml/10 g volume/body weight. (Note: mice were given the compound after fasted for 8 hours without water-fasted.)
Experimental principle: The mouse is placed in a limited space which can not escape to swim, thus inducing animals to non-movement state which reflects the animal's desperate behavior.
Experimental Methods: mice were grouped randomly, 15 minutes swimming depression was modeled at the first day, and equivalent mice were selected. The second day of the test, 1 hour after the animals were orally administered the compound (0.5 hours after intraperitoneal injection) and then the animals were put in water to record the non-movement time in the later 4 min of 6 min.

[5] = human, hERG, read-out: Inhibition rate (%)
[6] = 30 mg/kg i.p., 1 hour before, 30-minute test

Chain of mGluR2 (Q14416 19-872): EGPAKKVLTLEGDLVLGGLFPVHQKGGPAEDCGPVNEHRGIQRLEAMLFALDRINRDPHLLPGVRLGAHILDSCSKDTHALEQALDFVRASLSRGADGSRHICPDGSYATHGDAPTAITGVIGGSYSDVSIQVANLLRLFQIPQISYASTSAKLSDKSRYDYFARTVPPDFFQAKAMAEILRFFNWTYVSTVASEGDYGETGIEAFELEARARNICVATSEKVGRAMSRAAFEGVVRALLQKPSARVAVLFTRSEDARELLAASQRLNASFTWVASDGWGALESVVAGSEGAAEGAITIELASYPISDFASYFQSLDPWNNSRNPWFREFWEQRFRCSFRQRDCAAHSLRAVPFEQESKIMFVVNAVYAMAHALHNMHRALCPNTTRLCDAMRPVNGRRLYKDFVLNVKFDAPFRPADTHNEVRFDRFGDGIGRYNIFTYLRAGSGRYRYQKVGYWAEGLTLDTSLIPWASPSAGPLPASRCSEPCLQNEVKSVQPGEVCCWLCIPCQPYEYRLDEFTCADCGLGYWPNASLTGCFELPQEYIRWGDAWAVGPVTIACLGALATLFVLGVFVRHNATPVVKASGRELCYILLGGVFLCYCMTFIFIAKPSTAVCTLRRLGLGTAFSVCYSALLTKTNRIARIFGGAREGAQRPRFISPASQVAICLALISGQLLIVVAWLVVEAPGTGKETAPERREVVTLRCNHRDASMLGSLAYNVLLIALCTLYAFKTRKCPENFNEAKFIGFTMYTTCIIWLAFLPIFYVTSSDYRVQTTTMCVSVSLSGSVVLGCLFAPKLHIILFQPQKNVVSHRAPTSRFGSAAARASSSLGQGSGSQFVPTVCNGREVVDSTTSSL

Row | SMILES | EC50 [1] | IC50 [2] | inhibition at 40 µM [2, 5] | further results
1 | FC1(F)CC1Cc1nnc2cc(-c3cccc4c3OCC4)ccn12 (stereo not drawn) [Compound 32, 3-((2,2-difluorocyclopropyl)methyl)-7-(2,3-benzodihydrofuran-7-yl)-[1,2,4]triazole[4,3-a]pyridine] | 825 nM | > 40000 nM | 51% | 
2 | Cc1cccc(-c2ccn3c(CC4CC4(F)F)nnc3c2)c1 (stereo not drawn) [Compound 10, 3-((2,2-difluorocyclopropyl)methyl)-7-(m-tolyl)-[1,2,4]triazole [4,3-a]pyridine] | 143 nM | > 40000 nM | 38.1% | 
3 | Fc1ccc(-c2ccn3c(CC4CC4(F)F)nnc3c2)cc1 (stereo not drawn) [Compound 13, 3-((2,2-difluorocyclopropyl)methyl)-7-(4-fluorophenyl)-[1,2,4]triazole [4,3-a]pyridine] | 381 nM | 31900 nM | 52.8% | 
4 | CC(C)(O)c1ccc(-c2ccn3c(CC4CC4(F)F)nnc3c2)cc1 (stereo not drawn) [Compound 21, 2-(4-(3-((2,2-difluorocyclopropyl)methyl)-[1,2,4]triazole[4,3-a]pyridin-7-yl)phenyl)propan-2-ol] | 226 nM | 31900 nM | 52.8% | 
5 | COc1ccc(-c2ccn3c(CC4CC4(F)F)nnc3c2Cl)cc1F (stereo not drawn) [Compound 44, 8-chloro-3-((2,2-difluorocyclopropyl)methyl)-7-(3-fluoro-4-methoxyphenyl)-[1,2,4]triazole[4,3-a]pyridine] | 118 nM | 16100 nM | 64.5% | 
6 | Fc1cccc(-c2ccn3c(CC4CC4(F)F)nnc3c2)c1 (stereo not drawn) [Compound 11, 3-((2,2-Difluorocyclopropyl)methyl)-7-(3-fluorophenyl)-[1,2,4]triazole [4,3-a]pyridine] | 704 nM | > 40000 nM | 45.9% | 
7 | Cc1cc(F)ccc1-c1ccn2c(CC3CC3(F)F)nnc2c1 (stereo not drawn) [Compound 26, 3-((2,2-difluorocyclopropyl)methyl)-7-(4-fluoro-2-methylphenyl)-[1,2,4] triazole[4,3-a]pyridine] | 781 nM | > 40000 nM | 49.4% | 
8 | FC1(F)CC1Cc1nnc2cc(-c3ccc4c(c3)OCO4)ccn12 (stereo not drawn) [Compound 35, 7-(Benzo[d][1,3]dioxol-5-yl)-3-((2,2-difluorocyclopropyl)methyl)-[1,2,4]triazole [4,3-a]pyridine] | 108 nM | > 40000 nM | 40% | Central area dwell time (s) Mean ± SEM [3, 6]: 102.6 ± 20.8 s; Central area traveling distance percentage (%) Mean ± SEM [3, 6]: 15.41 ± 1.99%; Total moving distance (cm) Mean ± SEM [3, 6]: 3491.2 ± 650.6 cm
9 | COC(=O)c1ccc(-c2ccn3c(CC4CC4(F)F)nnc3c2)c(F)c1 (stereo not drawn) [Compound 29, Methyl 4-(3-((2,2-difluorocyclopropyl)methyl)-[1,2,4]triazolo[4,3-a]pyridin-7-yl)-3-fluorobenzonate] | 541 nM | 17300 nM | 62.4% | 
10 | Cc1cccc(-c2ccn3c(CC4CC4(F)F)nnc3c2Cl)c1 (stereo not drawn) [Compound 36, 8-chloro-3-((2,2-difluorocyclopropyl)methyl)-7-(m-tolyl)-[1,2,4] triazole[4,3-a]pyridine] | 130 nM | > 40000 nM | 48.9% | 
11 | COc1ccccc1Oc1ccc(N(Cc2cccnc2)S(=O)(=O)CC(F)(F)F)cc1 [LY487379, reference compound] | 230 nM |  |  | 
12 | FC1(F)CC1Cc1nnc2cc(-c3cccc4cccnc34)ccn12 (stereo not drawn) [Compound 34, 8-(3-((2,2-difluorocyclopropyl)methyl)-[1,2,4]triazole[4,3-a]pyridin-7-yl)quinoline] | 612 nM | > 40000 nM | 36% | 
13 | COc1ccc(-c2ccn3c(CC4CC4(F)F)nnc3c2)cc1F (stereo not drawn) [Compound 23, 3-((2,2-difluorocyclopropyl)methyl)-7-(3-fluoro-4-methoxyphenyl)-[1,2,4] triazole[4,3-a]pyridine] | 849 nM | > 40000 nM | 46% | 
14 | CN(C)CCC=C1c2ccccc2CCc2ccccc21 [Amitriptyline, reference compound] |  |  |  | "no movement time" of swimming in mice (in words) ([4]; mouse, in vivo): significantly improved; non-movement time (%) Mean ± SEM [4]: 5.32 ± 2.08 %
15 | COC(=O)c1ccc(-c2ccn3c(CC4CC4(F)F)nnc3c2Cl)c(Cl)c1 (stereo not drawn) [Compound 46, Methyl 3-Chloro-4-(8-chloro-3-((2,2-difluorocyclopropyl)methyl)-[1,2,4]triazole[4,3-a]pyridine-7-yl)benzoate] | 230 nM | 10800 nM | 82.5% | 
16 | CN1C(=O)CN=C(c2ccccc2)c2cc(Cl)ccc21 [Diazepam, reference compound] |  |  |  | anti-anxiety effect in the open field experiment ([3]; mouse, in vivo): very significant anti-anxiety effect
17 | FC1(F)CC1Cc1nnc2c(Cl)c(-c3ccc4c(c3)CCO4)ccn12 (stereo not drawn) [Compound 47, 8-chloro-3-((2,2-difluorocyclopropyl)methyl)-7-(2,3-benzodihydrofuran-5-yl)-[1,2,4]triazole[4,3-a]pyridine] | 215 nM | 4880 nM | 96.4% | 
18 | COc1cc(N)c(Cl)cc1C(=O)NC1CCN(CCCOc2ccc(F)cc2)CC1OC (stereo not drawn) [Cisapride, reference compound] |  |  |  | inhibition at 3 µM ([2]; human, hERG, positive compound, maximum test concentration 3 μM, read-out: Inhibition rate (%)): 96.6%
19 | Cc1cc(F)ccc1-c1ccn2c(CC3CC3(F)F)nnc2c1Cl (stereo not drawn) [Compound 41, 8-chloro-3-((2,2-difluorocyclopropyl)methyl)-7-(4-fluoro-2-methylphenyl)-[1,2,4]triazole[4,3-a]pyridine] | 856 nM | 11200 nM | 80.1% | 
20 | FC1(F)CC1Cc1nnc2cc(-c3ccc4c(c3)CCO4)ccn12 (stereo not drawn) [Compound 31, 3-((2,2-difluorocyclopropyl)methyl)-7-(2,3-benzodihydrofuran-5-yl)-[1,2,4]triazole[4,3-a]pyridine] | 368 nM | > 40000 nM | 48.1% | 
21 | Cc1cc(-c2ccn3c(CC4CC4(F)F)nnc3c2)ccc1F (stereo not drawn) [Compound 27, 3-((2,2-difluorocyclopropyl)methyl)-7-(4-fluoro-3-methylphenyl)-[1,2,4] triazole[4,3-a]pyridine] | 868 nM | > 40000 nM | 49.9% | 
22 | CNCCC(Oc1ccc(C(F)(F)F)cc1)c1ccccc1 (stereo not drawn) [Fluoxetine, reference compound] |  |  |  | non-movement time (%) Mean ± SEM [4]: 33.98 ± 9.84 %
23 | Fc1cccc(-c2ccn3c(CC4CC4(F)F)nnc3c2Cl)c1 (stereo not drawn) [Compound 37, 8-chloro-3-((2,2-difluorocyclopropyl)methyl)-7-(3-fluorophenyl)-[1,2,4] triazole[4,3-a]pyridine] | 190 nM | 15000 nM | 57% | 

From US10800776B2, “Fluorine-containing triazolopyridine, and manufacturing method, pharmaceutical composition, and application thereof” (SHANGHAI INSTITUTE OF MATERIA MEDICA, CHINESE ACADEMY OF …, priority 2016, dated 2020)
